Test system: panel of 50 SH2 domains
Test: SPOT peptide array probed with each of 50 GST-SH2 domains
Type: binding
Conditions: SPOT192 peptide array; for SH2 Domains >3X: list of GST-SH2 domains with spot intensity >3X array mean (array-positive); for 2X < SH2 Domains < 3X: list of GST-SH2 domains with spot intensity between 2X and 3X array mean (indeterminate range)
From the text: The use of addressable peptide arrays is a reproducible and semi-quantitative approach that has been extensively validated for studying protein interactions with peptide ligands. To investigate connections between SH2 domain proteins and their putative phosphorylated docking sites on cell surface receptors, we developed addressable arrays consisting of 192 phosphotyrosine peptides. This peptide set was assembled using 71 phosphotyrosine peptide motifs corresponding to all of the cytoplasmic tyrosine residues within the FGF receptors (FGFR1-4), insulin receptor (InsR) and IGF-1 receptor (IGF-1R) (Figure 1A). Activation of these receptors results in the phosphorylation of associated scaffold proteins, and so 75 phosphotyrosine peptides corresponding to a comprehensive list of tyrosine residues within insulin receptor substrates (IRS-1 and IRS-2) and fibroblast receptor substrates (FRS-2 and FRS-3) were included. In addition, 33 phosphotyrosine peptides were incorporated from the downstream signaling proteins PLC-γ1, p130Cas (BCAR1) and p62DOK1. […] These control peptides provide a reference and establish the empirical cut-off for designated binding interactions (Table 1). No discrimination was made against peptides on the basis of reported phosphorylation state in order to examine a diverse and unbiased set of motifs. The resulting set of 192 phosphotyrosine peptides and their corresponding position in the proteins of origin is noted in Additional file 1: Table S1. Addressable arrays were synthesized as membrane-bound 11-mer peptides using the SPOT synthesis technique. While the majority of SH2 domains recognize residues C-terminal to the phosphotyrosine in their cognate peptide ligands, additional contacts between SH2 domains and residues N-terminal to the phosphotyrosine are observed for the SH2 domain of Sh2d1a (SAP) and cannot be ruled out in other cases. Peptides were synthesized with six flanking residues C-terminal to the phosphotyrosine and four residues N-terminal to the phosphotyrosine.
To assess the potential network of SH2 domain interactions we selected 50 SH2 domains representing 28 of the 38 families of SH2 domains (Figure 1B) all of which we have previously shown can be expressed and purified. These include a number of extensively studied SH2 domains (Src, Grb2, PLCγ), as well as a number of less studied SH2 domains from proteins such as Shd, She, Shf, Slnk (Sh2d6), Sh2d1a (SAP), Sh2d1b (Eat-2), and Brdg1. To address potential variability in specificity within families we employed all members from the SHB, CRK, GRB2, SRC and ABL families (families are indicated with complete Capitalized lettering).
SH2 domains were arrayed as GST fusion proteins and detected using anti-GST primary antibodies and near-infrared labeled secondary antibodies. In an effort to present a dataset with minimal false positives, we chose an empirical cutoff based on the array average across all peptide spots to classify interactions (Figure 1A). In cases where the intensity of the signal for an individual SH2-domain binding event exceeded the mean intensity of all the peptides on the membrane by three-fold were scored as “array positives” [22]. Non-binding was judged in cases where the intensity of a spot was less than the mean intensity of all spots on the membrane and these were scored as “array negatives”. Peptides with signal intensities between 1X and 3X mean were scored as “indeterminate” and ascribed as neither array positive binding interactions nor array-negative non-binders. […] This signature may be indicative of promiscuity differences between phosphopeptides or there may be a subset of peptides which interact in a nonspecific fashion with either the GST fusion tag or one of the antibodies used for detection, resulting in false positives. […]

| Substance | SH2 Domains >3X | 2X < SH2 Domains < 3X |
| --- | --- | --- |
| FAQLpYRSLMYS [G18] | BRDG1, MIST, Sh2b, SH2D2A, SHB, SHF, SHD, TENC1, ZAP70_N | BMX, DAPP1, GADS, GRAP, PLCG2_N, PTPN11_C, SYK_C |
| NLREpYLRARRP [E20] | BCAR3, BMX, BRDG1, MIST, PLCG2_N, RIN1, SHF, SHD, TENC1 | BRK, DAPP1, FER, PI3K1_N, PLCG2_C, PTPN11_C, Sh2b, SHB |
| GGPLpYVLVEYA [F07] | MIST, RASA1_N, SHE, SYK_C, ZAP70_N | ITK, SHD |
| DPNGpYMMMSPS [C07] | PI3K1_C |  |
| MCKVpYSDPQPH [E02] | CRKL |  |
| ETDYpYRKGGKG [B02] | BCAR3, BRDG1, BRK, TENC1 | BMX, MIST, PLCG2_N, RIN1, SHF, SYK_C |
| KEEGpYELPYNP [H21] | ABL1, ABL2, BLK, BRK, FGR, FYN, HCK, ITK, LCK, LYN, NCK1, PI3K1_N, RASA1_N, RASA1_C, RIN1, SH2D1B, SHC1, SHIP1, SRC, VAV1, YES | FER, GRB7 |
| LTGVpYRLCLSA [D08] |  | BCAR3, BRDG1, MIST, TENC1 |
| CLRRpYGYDSNL [F22] | BCAR3, BMX, BRDG1, CRK, CRKL, DAPP1, FER, GRB7, MATK, MIST, PLCG2_N, SHB, SHF, SHD, TENC1 | ITK, PLCG2_C, PTPN11_C, RIN1, SH2D2A, SH3BP2 |
| AEDVpYDVPPPA [A04] | CRK, CRKL, HCK, NCK1, SRC | FYN, LYN, YES |
| RLEYpYESEKKW [D01] | SH3BP2 | BRDG1, FER, MIST, PTPN11_C, Sh2b, SH2D1B |
| ARLEpYYENEKK [B19] | GRB7, MIST, SH3BP2 | SH2D2A, SHF, SHD |
| RKRTpYSLTTPA [D13] | BCAR3, BRDG1, ITK, PLCG2_N, TENC1 | BMX, BRK, MIST, SHB, SHF |
| EHIPpYTHMNGG [B06] |  | PI3K1_C |
| EVSFpYYSEENK [B15] | DAPP1, ITK, PLCG2_C, RASA1_C, Sh2b, SHB, SHE, SYK_C, VAV1 | ABL1, BLK, MATK, RASA1_N |
| DLSApYASISFQ [C23] | PTPN11_N, PTPN11_C | SH2D1B, SHD, SHE |
| ELSNpYICMGGK [C01] | PI3K1_C |  |
| YVTDpYLDVPSN [A16] | SLNK | BRK, RASA1_N |
| PLSDpYMNLDFS [D24] | GADS, GRAP, GRB2, RASA1_N, SYK_C | ABL1, GRB7, PI3K1_C, PLCG2_N, RASA1_C |
| PPALpYAEPLDS [H15] | ABL1, ITK, NCK1, RASA1_N, RASA1_C, VAV1, ZAP70_N | ABL2 |
| QGYVpYEAAQPE [H09] | VAV1 | ZAP70_N |

| Substance | SH2 Domains >3X | 2X < SH2 Domains < 3X |
| --- | --- | --- |
| DGMApYLNAKKF [A23] | BCAR3, BMX, BRDG1, FER, GRB2, MIST, PTPN11_N, PTPN11_C, RIN1, Sh2b, SHF, SHD, TENC1 | BRK, DAPP1, FGR, ITK, MATK, PI3K1_N, PI3K1_C, PLCG2_N, PLCG2_C, SH3BP2, SHB, SHE, YES |
| QVHTpYVNTTGV [G02] | GADS, GRAP, GRB2, GRB7, PI3K1_N, PI3K1_C | ABL1, ZAP70_N |
| PSDApYYGPEDP [C10] | DAPP1, PLCG2_N, PLCG2_C | BLK, BMX, LCK, RASA1_N |
| GGEFpYGYMTMD [D10] | BCAR3, DAPP1, GRB7, PLCG2_C, SLNK | BMX, MATK, RASA1_N, RASA1_C |
| PQDIpYDVPPVR [H11] | CRK, CRKL, NCK1, SHIP1, ZAP70_N | FGR, FYN, LCK, LYN |
| QEGWpYRALTDL [D05] | CRK | ABL1, ABL2, TENC1 |
| WMEDpYDYVHLQ [H12] | BCAR3, BMX, BRK, CRK, CRKL, DAPP1, FER, GRB7, ITK, MATK, NCK1, PI3K1_N, PLCG2_N, RASA1_N, RASA1_C, RIN1, SH3BP2, TENC1 | ABL1, BLK, FYN, HCK, LCK, LYN, PLCG2_C, SH2D1B, SHB, SHC1, SHIP1, SRC |
| STDEpYLDLSAP [F11] | LCK |  |
| EGSApYEEVPTS [G20] | BRK, FGR, LYN, NCK1, SH2D1B, SHC1, YES | BLK, FER, FYN, HCK, GRB7, LCK |
| VIVEpYASKGNL [E07] |  | BCAR3 |
| ADDGpYMPMTPG [D18] | HCK, SRC | PI3K1_C |
| TDDGpYMPMSPG [C06] | HCK, PI3K1_C, SRC | FYN |
| LIALpYTKDEYF [D03] | SH2D2A | ABL1, PLCG2_C |
| SDDDpYDDVDIP [A12] | BRK, NCK1, SLNK |  |
| PFEQpYSPGGQD [F12] |  | ZAP70_N |
| VFTTpYSDVWSF [B13] | ABL1, ABL2, BRK, ITK, RASA1_N, RASA1_C, RIN1, SH2D1B, SH2D2A, SHC1 | BCAR3, CRK, NCK1, PI3K1_N, SHIP1 |
| AKTGpYENFIHL [B10] | GADS, GRB2, GRB7, MIST, PI3K1_N, SH2D2A, SH3BP2, TENC1 | BRDG1, BRK |
| RKVGpYLRKPKS [B18] | BCAR3, BMX, BRDG1, BRK, FER, PI3K1_N, RIN1, TENC1 | MATK, MIST, PLCG2_N, PTPN11_C, SHB, SHF, SHD |
| EDLSpYGDVPPG [B23] | ABL1, BRK, FGR, FYN, LCK, LYN, SH2D1B, SHC1, SHIP1, SLNK, YES | BLK, HCK, GRB7 |
| PCSVpYVPDEWE [A20] | BMX, DAPP1, ITK, PLCG2_N, PLCG2_C, RASA1_N, RASA1_C, SH2D1B, VAV1 | FGR, FYN, MATK, SH2D2A, SHC1 |
| YKAPpYTAGGDS [D22] | MIST |  |

| Substance | SH2 Domains >3X | 2X < SH2 Domains < 3X |
| --- | --- | --- |
| AKHKpYLIALYT [D02] | BRDG1, BRK | BCAR3, BMX, FER, PLCG2_N, PTPN11_C, RIN1, SHF, TENC1 |
| LGPLpYASSNPE [A18] | ZAP70_N |  |
| WDTGpYDSDERR [G03] | SH3BP2, SRC | DAPP1, FER, HCK, ZAP70_N |
| AEPQpYEEIPIY [A10] | BLK, BRK, FER, FGR, HCK, LYN, NCK1, PLCG2_C, SHC1, SRC, YES | ABL1, BMX, DAPP1, FYN, LCK, RIN1, SH2D1B, SRC |
| WRGDpYGGKKQL [H04] | BCAR3, BRDG1, BRK, DAPP1, FER, MIST, RIN1, TENC1 | BMX, ITK, PLCG2_N, Sh2b, SH3BP2, SHF, SHD, SYK_C |
| RQLNpYIQVELK [G14] | BCAR3, MIST, PTPN11_N, SHE | BRDG1, SHD, TENC1 |
| QDSWpYQALLQL [B22] | ABL2, BCAR3, CRK, MATK, SH2D2A, SYK_C, TENC1, VAV1 | BMX, GADS, RIN1, Sh2b, SHD |
| YGALpYEGRNPG [H02] |  | SH3BP2, ZAP70_N |
| AEDSpYGLVAPA [D06] | FGR, FYN, HCK, LCK, LYN, SH2D1B, SHC1, SHIP1, SRC, YES | BLK |
| SIEEpYTEMMPA [C03] | BRK, SHC1 | BLK, FER, FGR, LCK, PI3K1_C |
| FESRpYQQPFED [H06] | ABL1, ABL2, CRK, CRKL, HCK, ITK, NCK1, RASA1_N, RASA1_C, VAV1 | MATK, PLCG2_N, SH2D2A, SRC |
| TRDIpYETDpYpYR [A13] | ABL2, BCAR3, CRK, CRKL, DAPP1, GRB7, PI3K1_C, PLCG2_C | FGR, HCK, RASA1_N, SH2D1B, SRC, FGR, GRB7, LCK, LYN, MIST, RIN1 |
| SSDSpYAVIDLK [G15] | SH2D1B, SHC1, SHIP1 | HCK |
| NSALpYSQVQKS [H24] | BCAR3, BRDG1, CRK, CRKL, PTPN11_C, SH2D1B, SHC1, SHIP1 | ABL2, BMX, FER, PTPN11_N, RIN1 |
| NKLVpYENINGL [G04] | GADS, GRAP, GRB2, GRB7, SH2D2A, SH3BP2 | ABL1 |
| EGPLpYVIVEAA [F13] | ITK, MATK, PLCG2_N, RASA1_N, SYK_C | ABL2, PLCG2_C, PTPN11_N, SH2D1B |
| VNPEpYFSAADV [B12] |  | Sh2b |
| THDLpYMIMREC [F10] |  | PI3K1_C |
| EDSGpYMRMWAG [D20] | FYN, PI3K1_C | LCK |
| WYPHpYFVLTSS [G24] | ABL2, CRK, CRKL, ITK, MATK, MIST, PI3K1_C, PTPN11_C, SH2D1B, SHD, SHIP1, ZAP70_N | BCAR3, GRB7, SHC1 |
| PNGHpYILSRGG [C02] | BRDG1, CRK, DAPP1, MIST, PTPN11_C, RASA1_C, SHB, SHF, SHD, SYK_C, TENC1 | BCAR3, BMX, FER, PLCG2_N, Sh2b, SHE |
